Laboratory results as given in patent US20210220356A1, “DIHYDROPYRIMIDINE DERIVATIVES AND USES THEREOF IN THE TREATMENT OF HBV INFECTION OR OF HBV-INDUCED DISEASES” (Janssen Sciences Ireland Unlimited Company, priority 2018, published 2021).
Where two headings read alike, the source gives them in different places.

Legend:
[1] = test system: HepG2.2.15 cells; assay: Cytotoxicity determination in HepG2.2.15 cells (CCK-8); type: cell-based; settings: HepG2.2.15 cells, 5,000 cells/well, 6 days of compound treatment, CCK-8 absorbance 450 nm, highest concentration 100 uM
Procedure: (§1) • HepG2.2.15 (the HepG2.2.15 cell line can be produced by transfection of the HepG2 cell line as described in Sells, Chen, and Acs 1987 (Proc. Natl. Acad. Sci. USA 84: 1005-1009), and the HepG2 cell line is available from ATCC® under number HB-8065™)
(§2) Seed the cell HepG2.2.15 cells into 96-well plate in 2% FBS culture medium at the density of 40,000 cells/well and 5,000 cells/well for HBV inhibitory activity and cytotoxicity determination, respectively. After seeding, incubate the cell plates at 37° C., 5% CO2 overnight. The next day, medium containing compounds is added to the cell to treat the cells for 6 days with medium refreshed once in the middle of the treatment. 8 dose points with 3 folds dilution of each compound were adopted and the highest concentration of the compounds is 10 uM and 100 uM for HBV inhibitory activity and cytotoxicity determination, respectively.
After 6 days of compounds treatment, add 20 μl CCK-8 reagents to each well of cytotoxicity assay plates, incubate the plate at 37° C., 5% CO2 for 2.5 h and measure the absorbance at 450 nm wavelength, at the same time read the absorbance at 630 nm wavelength as reference.
(§3) EC50 and CC50 values are calculated by the GRAPHPAD PRISM software.

[2] = test system: HBV; assay: HBV inhibitory activity in HepG2.2.15 cells (HBV DNA in culture medium by q-PCR); type: cell-based; settings: HepG2.2.15 cells, 40,000 cells/well, 6 days of compound treatment, HBV DNA in culture medium by q-PCR, highest concentration 10 uM, read-out: EC50
Procedure: as §1, §2
The HBV DAN change in the cell culture medium induced by the compounds is measured by q-PCR method. Briefly, the HBV DNA in the culture medium is extracted using QIAamp 96 DNA Blood Kit according to the manual and then quantified by q-PCR using the primers and probe in the table below.
as §3

| SMILES | CC50 [1] | EC50 [2] | EC50 ([2]; Hepatitis B virus, HepG2.2.15, 144 h) |
| --- | --- | --- | --- |
| CCOC(=O)C1=C(C2CCc3nn(CC(=O)O)cc3C2)NC(c2nccs2)=NC1c1ccc(F)c(F)c1Cl (single isomer, unassigned) [Compound 49c] | 25.4 µM | 0.11 µM | – |
| CCOC(=O)C1=C(C2CCc3nn(C(C)CC(=O)O)cc3C2)NC(c2nccs2)=NC1c1ccc(F)c(F)c1Cl (single isomer, unassigned) [Compound 52d, 3-(5-(6-(2-chloro-3,4-difluorophenyl)-5-(ethoxycarbonyl)-2-(thiazol-2-yl)-3,6-dihydropyrimidin-4-yl)-4,5,6,7-tetrahydro-2H-indazol-2-yl)butanoic acid] | 10.5 µM | 0.0124 µM | – |
| COC(=O)C1=C(C2CCc3nn(CCC(=O)O)cc3C2)NC(c2nccs2)=NC1c1ccc(F)cc1Cl (single isomer, unassigned) [Compound 47b, 3-(5-(6-(2-Chloro-4-fluorophenyl)-5-(methoxycarbonyl)-2-(thiazol-2-yl)-3,6-dihydropyrimidin-4-yl)-4,5,6,7-tetrahydro-2H-indazol-2-yl)propanoic acid] | 37.7 µM | 0.47 µM | – |
| CCOC(=O)C1=C(C2CCc3nn(CCC(=O)O)cc3C2)NC(c2nccs2)=NC1c1ccc(F)cc1Cl (single isomer, unassigned) [Compound 37d, 3-(5-(6-(2-Chloro-4-fluorophenyl)-5-(ethoxycarbonyl)-2-(thiazol-2-yl)-3,6-dihydropyrimidin-4-yl)-4,5,6,7-tetrahydro-2H-indazol-2-yl)propanoic acid] | 18.9 µM | 0.88 µM | – |
| CCOC(=O)C1=C(C2CCc3nn(C(C)CC(=O)O)cc3C2)NC(c2nccs2)=NC1c1ccc(F)c(F)c1Cl (single isomer, unassigned) [Compound 52b, 3-(5-(6-(2-chloro-3,4-difluorophenyl)-5-(ethoxycarbonyl)-2-(thiazol-2-yl)-3,6-dihydropyrimidin-4-yl)-4,5,6,7-tetrahydro-2H-indazol-2-yl)butanoic acid] | 5.8 µM | – | – |
| CCOC(=O)C1=C(C2CCc3nn(CCC(=O)O)cc3C2)NC(c2nccs2)=NC1c1ccc(F)cc1Cl (single isomer, unassigned) [Compound 37c, 3-(5-(6-(2-Chloro-4-fluorophenyl)-5-(ethoxycarbonyl)-2-(thiazol-2-yl)-3,6-dihydropyrimidin-4-yl)-4,5,6,7-tetrahydro-2H-indazol-2-yl)propanoic acid] | 21.1 µM | 0.0222 µM | – |
| CCOC(=O)C1=C(C2CCc3cn(CCC(=O)O)nc3C2)NC(c2nccs2)=NC1c1ccc(F)c(F)c1Cl (single isomer, unassigned) [Compound 61a, 3-(6-(6-(2-Chloro-3,4-difluorophenyl)-5-(ethoxycarbonyl)-2-(thiazol-2-yl)-3,6-dihydropyrimidin-4-yl)-4,5,6,7-tetrahydro-2H-indazol-2-yl)propanoic acid] | 4.8 µM | 0.0612 µM | – |
| CCOC(=O)C1=C(C2CCc3nn(CCC(=O)O)cc3C2)NC(c2nccs2)=NC1c1ccc(F)c(F)c1Cl (single isomer, unassigned) [Compound 34d, 3-(5-(6-(2-chloro-3,4-difluorophenyl)-5-(ethoxycarbonyl)-2-(thiazol-2-yl)-3,6-dihydropyrimidin-4-yl)-4,5,6,7-tetrahydro-2H-indazol-2-yl)propanoic acid] | 20.6 µM | 0.146 µM | – |
| COC(=O)C1=C(C2CCc3nn(CCC(=O)O)cc3C2)NC(c2nccs2)=NC1c1ccc(F)cc1Br (single isomer, unassigned) [Compound 48b, 3-(5-(6-(2-Bromo-4-fluorophenyl)-5-(methoxycarbonyl)-2-(thiazol-2-yl)-3,6-dihydropyrimidin-4-yl)-4,5,6,7-tetrahydro-2H-indazol-2-yl)propanoic acid] | 80 µM | 0.6 µM | – |
| COC(=O)C1=C(C2CCc3nc([C@H]4C[C@H](C(=O)O)C4)sc3C2)NC(c2nccs2)=NC1c1ccc(F)c(F)c1Cl (single isomer, unassigned) [Compound 68b, (trans)-3-(-6-(-6-(2-chloro-3,4-difluorophenyl)-5-(methoxycarbonyl)-2-(thiazol-2-yl)-3,6-dihydropyrimidin-4-yl)-4,5,6,7-tetrahydrobenzo[d]thiazol-2-yl)cyclobutanecarboxylic acid] | 8.3 µM | – | 0.009 µM |
| CCOC(=O)C1=C(C2CCc3nn(CCC(=O)O)cc3C2)NC(c2nccs2)=NC1c1ccc(F)c(F)c1Cl (single isomer, unassigned) [Compound 34c, 3-(5-(6-(2-chloro-3,4-difluorophenyl)-5-(ethoxycarbonyl)-2-(thiazol-2-yl)-3,6-dihydropyrimidin-4-yl)-4,5,6,7-tetrahydro-2H-indazol-2-yl)propanoic acid] | 14.9 µM | < 0.0046 µM | – |
| COC(=O)C1=C(C2CCc3nn(CCC(=O)O)cc3C2)NC(c2nccs2)=NC1c1cccc(F)c1Cl (single isomer, unassigned) [Compound 44c, 3-(5-(6-(2-Chloro-3-fluorophenyl)-5-(methoxycarbonyl)-2-(thiazol-2-yl)-3,6-dihydropyrimidin-4-yl)-4,5,6,7-tetrahydro-2H-indazol-2-yl)propanoic acid] | 36.7 µM | 0.0329 µM | – |
| COC(=O)C1=C(C2CCc3nn(CCC(=O)O)cc3C2)NC(c2nccs2)=NC1c1ccc(F)cc1Cl (single isomer, unassigned) [Compound 47c, 3-(5-(6-(2-Chloro-4-fluorophenyl)-5-(methoxycarbonyl)-2-(thiazol-2-yl)-3,6-dihydropyrimidin-4-yl)-4,5,6,7-tetrahydro-2H-indazol-2-yl)propanoic acid] | > 100 µM | 0.147 µM | – |
| CCOC(=O)C1=C(C2CCc3nc(CCC(=O)O)oc3C2)NC(c2nccs2)=NC1c1ccc(F)c(F)c1Cl (single isomer, unassigned) [Compound 58d, 3-(6-(6-(2-Chloro-3,4-difluorophenyl)-5-(ethoxycarbonyl)-2-(thiazol-2-yl)-3,6-dihydropyrimidin-4-yl)-4,5,6,7-tetrahydrobenzo[d]oxazol-2-yl)propanoic acid] | 10.8 µM | 0.0092 µM | – |
| CCOC(=O)C1=C(C2CCc3nn(CCC(=O)O)cc3C2)NC(c2nccs2)=NC1c1cccc(F)c1C (single isomer, unassigned) [Compound 41c, 3-(5-(5-(Ethoxycarbonyl)-6-(3-fluoro-2-methylphenyl)-2-(thiazol-2-yl)-3,6-dihydropyrimidin-4-yl)-4,5,6,7-tetrahydro-2H-indazol-2-yl)propanoic acid] | 14.4 µM | 0.0304 µM | – |
| COC(=O)C1=C(C2CCc3nc([C@H]4C[C@H](C(=O)O)C4)sc3C2)NC(c2nccs2)=NC1c1ccc(F)c(F)c1Cl (single isomer, unassigned) [Compound 68c, (trans)-3-(6-(-6-(2-chloro-3,4-difluorophenyl)-5-(methoxycarbonyl)-2-(thiazol-2-yl)-3,6-dihydropyrimidin-4-yl)-4,5,6,7-tetrahydrobenzo[d]thiazol-2-yl)cyclobutanecarboxylic acid] | 3.6 µM | 0.00645 µM | – |
| CCOC(=O)C1=C(C2CCc3nn(C(C)CC(=O)O)cc3C2)NC(c2nccs2)=NC1c1ccc(F)c(F)c1Cl (single isomer, unassigned) [Compound 51c, 3-(5-(6-(2-chloro-3,4-difluorophenyl)-5-(ethoxycarbonyl)-2-(thiazol-2-yl)-3,6-dihydropyrimidin-4-yl)-4,5,6,7-tetrahydro-2H-indazol-2-yl)butanoic acid] | 8.6 µM | 0.0097 µM | – |
| CCOC(=O)C1=C(C2CCc3nn(CCC(=O)O)cc3C2)NC(c2nccs2)=NC1c1ccc(F)cc1C (single isomer, unassigned) [Compound 38c, 3-(5-(5-(Ethoxycarbonyl)-6-(4-fluoro-2-methylphenyl)-2-(thiazol-2-yl)-3,6-dihydropyrimidin-4-yl)-4,5,6,7-tetrahydro-2H-indazol-2-yl)propanoic acid] | 19.6 µM | 0.0146 µM | – |
| CCOC(=O)C1=C(C2CCc3sc(CCC(=O)O)nc3C2)NC(c2nccs2)=NC1c1ccc(F)c(F)c1Cl (single isomer, unassigned) [Compound 59f, 3-(5-(6-(2-Chloro-3,4-difluorophenyl)-5-(ethoxycarbonyl)-2-(thiazol-2-yl)-3,6-dihydropyrimidin-4-yl)-4,5,6,7-tetrahydrobenzo[d]thiazol-2-yl)propanoic acid] | 5.8 µM | 0.209 µM | – |
| CCOC(=O)C1=C(C2CCc3nn(CCC(=O)O)cc3C2)NC(c2nccs2)=NC1c1ccc(F)cc1Br (single isomer, unassigned) [Compound 39c, 3-(5-(6-(2-Bromo-4-fluorophenyl)-5-(ethoxycarbonyl)-2-(thiazol-2-yl)-3,6-dihydropyrimidin-4-yl)-4,5,6,7-tetrahydro-2H-indazol-2-yl)propanoic acid] | 11.9 µM | 0.0145 µM | – |
